# Measured values taken from patent US20100190724A1, “USE OF MELANOCYTE-STIMULATING HORMONE RELEASE-INHIBITING FACTOR AS A THERAPEUTIC AGENT IN THE TREATMENT OF PSEUDOMONAS AERUGINOSA INFECTION” (priority 2007, published 2010).
# Where a SMILES comes first, the peptide text is derived from it.
# System: drug-resistant Mycobacterium tuberculosis
# Settings: peptide 10 micrograms per ml, seven days
compound,measurement,value
"CC(C)C[C@H](NC(=O)[C@@H]1CCCN1)C(=O)NCC(N)=O [MSHRIF, Pro-Leu-Gly-NH2] (H-Pro-Leu-Gly-NH2)",% inhibition,0.0%
